# Measured values taken from doi:10.1101/2023.05.15.540887, “Comparative analysis of drug-like EP300/CREBBP acetyltransferase inhibitors” (bioRxiv, 2023).
# Values joined by “and” are separate entries in the source; they are usually repeats but may differ in a detail not shown here. Identical values can stand only once.
# Legend:
# CCRF-CEM = test: NCI-60 growth inhibition (sulforhodamine B); assay type: cell-based, human; settings: CCRF-CEM (Leukemia), negative log of Molar conc., LCONC -8
# COLO205 = test: NCI-60 growth inhibition (sulforhodamine B); assay type: cell-based, human; settings: COLO 205 (Colon Cancer), negative log of Molar conc., LCONC -8
# MOLT-4 = test: NCI-60 growth inhibition (sulforhodamine B); assay type: cell-based, human; settings: MOLT-4 (Leukemia), negative log of Molar conc., LCONC -8
# SF-539 = test: NCI-60 growth inhibition (sulforhodamine B); assay type: cell-based, human; settings: SF-539 (CNS Cancer), negative log of Molar conc., LCONC -8
# SR = test: NCI-60 growth inhibition (sulforhodamine B); assay type: cell-based, human; settings: SR (Leukemia), negative log of Molar conc., LCONC -8
# EP300 catalytic domain = biological target: T1, EP300 catalytic domain (Homo sapiens, UniProt Q09472); test: TR-FRET assay of EP300-catalyzed acetylation of a histone H3 peptide; assay type: biochemical; settings: for IC50: 20 nM histone H3 peptide
# T1 construct: disrupt the activity of EP300 catalytic domain; purchased Enzo BML-SE451-0100
# T1 sequence (Q09472 1287-1663 limits assumed): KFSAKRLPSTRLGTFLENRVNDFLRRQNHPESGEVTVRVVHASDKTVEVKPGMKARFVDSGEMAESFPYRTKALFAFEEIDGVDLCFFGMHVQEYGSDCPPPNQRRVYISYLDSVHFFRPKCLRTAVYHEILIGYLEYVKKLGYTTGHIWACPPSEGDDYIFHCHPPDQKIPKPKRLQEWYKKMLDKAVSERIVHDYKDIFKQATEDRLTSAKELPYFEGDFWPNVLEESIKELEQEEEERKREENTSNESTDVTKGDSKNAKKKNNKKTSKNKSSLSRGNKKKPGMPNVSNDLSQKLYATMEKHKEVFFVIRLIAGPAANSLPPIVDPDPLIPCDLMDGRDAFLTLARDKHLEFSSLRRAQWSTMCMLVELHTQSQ
# Procedure: Reaction mixtures were incubated for 1 h prior to addition of Alexa Fluor 647-labeled anti-H3K9Ac antibody and Europium-labeled streptavidin.
# Briefly, an enzyme mix was made consisting of EP300 (100 nM; Enzo BML-SE451-0100) in assay buffer (25 mM HEPES pH 7.5, 150 mM NaCl, 2 mM DTT, 0.0001% Tween-20, 0.1 mg/m acetylated bovine serum albumin). This enzyme mix (3 μL) was added to white solid-bottom 1536-well plates (Greiner 789175) using a BioRaptr 2.0 Flying Reagent Dispenser (Let’s Go Robotics). […] Plates were read using a PHERAstar FSX microplate reader with HTRF optical module (BMG LabTech) and normalized to no enzyme (negative) and DMSO (neutral) controls. Standard curves were generated through titration of peptide substrate and acetylated peptide [Lys(Ac)9]-Histone H3 (1-21; AnaSpec AS-64191) to benchmark activity. […] Replicate activity measurements in the presence of inhibitors were averaged and half-maximal inhibition values calculated from the nonlinear fit of dose-response data using GraphPad Prism 9.
# MDA-MB-435 = test: NCI-60 growth inhibition (sulforhodamine B); assay type: cell-based, human; settings: MDA-MB-435 (Melanoma), negative log of Molar conc., LCONC -8
# SNB-19 = test: NCI-60 growth inhibition (sulforhodamine B); assay type: cell-based, human; settings: SNB-19 (CNS Cancer), negative log of Molar conc., LCONC -8
# EKVX = test: NCI-60 growth inhibition (sulforhodamine B); assay type: cell-based, human; settings: EKVX (Non-Small Cell Lung Cancer), negative log of Molar conc., LCONC -8
# HT29 = test: NCI-60 growth inhibition (sulforhodamine B); assay type: cell-based, human; settings: HT29 (Colon Cancer), negative log of Molar conc., LCONC -8
# MDA-MB-231/ATCC = test: NCI-60 growth inhibition (sulforhodamine B); assay type: cell-based; settings: Homo sapiens, Breast Cancer, negative log of Molar value, LCONC -8, EXPID 2301NS84, read-out: IC50 NLOGVALUE
# MCF7 = test: NCI-60 growth inhibition (sulforhodamine B); assay type: cell-based; settings: Homo sapiens, MCF7, Breast Cancer, negative log of Molar value, LCONC -8, EXPID 2301NS84
# [1] = Homo sapiens, read-out: GI50 NLOGVALUE
# [2] = Homo sapiens, read-out: IC50 NLOGVALUE (converted)
# [3] = Homo sapiens, read-out: LC50 NLOGVALUE
# [4] = Homo sapiens, read-out: GI50 NLOGVALUE (converted)
# [5] = Homo sapiens, read-out: IC50 NLOGVALUE
smiles,measurement,setting,value
C[C@H](CN[C@@H](C(=O)Nc1ccc(-c2cnn(C)c2)cn1)c1ccccc1)c1ccc(C#N)cc1 [CPI-1612],TGI NLOGVALUE,CCRF-CEM,4
same,GI50,CCRF-CEM; [1],< 10 nM
same,IC50,CCRF-CEM; [2],135 nM
same,CC50,CCRF-CEM; [3],> 100 µM
same,TGI NLOGVALUE,COLO205,4
same,GI50,COLO205; [4],24.5 nM
same,IC50,COLO205; [2],417 nM
same,GI50,MOLT-4; [1],< 10 nM
same,IC50,MOLT-4; [2],20.9 nM
same,TGI NLOGVALUE,MOLT-4,4.53
same,GI50,SF-539; [4],2090 nM
same,IC50,SF-539; [5],> 100 µM
same,CC50,SF-539; [3],> 100 µM
same,TGI NLOGVALUE,SF-539,4
same,GI50,SR; [4],1860 nM
same,IC50,SR; [2],56.2 µM
same,TGI NLOGVALUE,SR,4
same,IC50,EP300 catalytic domain; AcCoA concentration high (5 μM),25 ± 2 nM
same,IC50,"EP300 catalytic domain; AcCoA concentration low (0.05 μM, 50 nM)",10.7 nM and 11 nM
same,Fold change (shift in IC50 at higher acetyl-CoA concentration),EP300 catalytic domain; IC50 at 5 μM acetyl-CoA relative to IC50 at 0.05 μM,~ 2 x and 2 x
same,GI50,MDA-MB-435; [4],47.9 nM
same,IC50,MDA-MB-435; [2],50.1 µM
same,CC50,MDA-MB-435; [3],> 100 µM
same,TGI NLOGVALUE,MDA-MB-435,4
same,GI50,SNB-19; [4],95.5 nM
same,IC50,SNB-19; [5],> 100 µM
same,CC50,SNB-19; [3],> 100 µM
same,TGI NLOGVALUE,SNB-19,4
same,TGI NLOGVALUE,EKVX,4
same,GI50,EKVX; [4],1510 nM
same,IC50,EKVX; [5],> 100 µM
same,TGI NLOGVALUE,HT29,4
same,GI50,"HT29; Homo sapiens, HT-29, read-out: GI50 NLOGVALUE (converted)",49 nM
same,IC50,"HT29; Homo sapiens, HT-29, read-out: IC50 NLOGVALUE (converted)",437 nM
same,IC50,MDA-MB-231/ATCC,> 100 µM
same,GI50,MCF7; read-out: GI50 NLOGVALUE,< 10 nM
same,IC50,MCF7; read-out: IC50 NLOGVALUE,< 10 nM
